Data as given in patent US20190209682A1, “ISOFORM-SPECIFIC, CONTEXT-PERMISSIVE TGFB1 INHIBITORS AND USE THEREOF” (Scholar Rock, Inc., priority 2017, published 2019).

What was measured:
[1] = Rat toxicity study, Phase II; assay type: in vivo
[2] = Rat toxicity study, Phase I; conditions: for Aortic root: Hemorrhage, Minimal / Aortic root: Infiltrate, mixed cell, Minimal / Atrium: Hemorrhage, Minimal / Atrium: Hyperplasia, endothelium, Minimal / Atrium: Infiltrate, mixed cell, Minimal / Atrium: Infiltrate, mixed cell, Slight / Coronary artery: Necrosis with inflammation, Slight / Heart valves: Valvulopathy, Minimal / Heart valves: Valvulopathy, Moderate / Heart valves: Valvulopathy, Slight / Myocardium: Degeneration/necrosis, Minimal / Myocardium: Degeneration/necrosis, Slight / Myocardium: Hemorrhage, Slight / Myocardium: Infiltrate, mixed cell, Slight: incidence
Description: Animal body weight was determined at days 1, 3, and 7 of the dosing phase. Animals were sacrificed at day 8 and necropsies performed.

[3] = test system: tonic SMAD2/3 signaling in BAL cells; assay: Pharmacodynamics, tonic phospho-SMAD2/3 in BAL cells of healthy rats; assay type: in vivo, rat; conditions: single oral gavage dose 100 mg/kg, 2 hours post-dosing
Description: To confirm isoform-selective inhibition of TGFβ1 in vivo, a pharmacodynamics study was conducted in which effects of Ab3 on tonic phospho-SMAD2/3 levels were assessed in bronchoalveolar lavage (BAL) cells collected from healthy rats. It is reported in the literature that under homeostatic conditions, BAL cells predominantly express TGFβ2/3, but little TGFβ1, while the latter becomes preferentially elevated in pathologic conditions.
Healthy Sprague Dawley rats (approximately 6-8 weeks old, weighing 200-250 g at the beginning of the study; Charles River) were randomized by bodyweight into study groups and dosed as described below.
Animals received test antibodies (huNEG-mIgG1, […], or Ab3) on Days 1, 8, and 15 by intraperitoneal injection. Animals are euthanized on Day 16 for BAL and serum collections. One group of control animals was dosed with a single oral gavage (PO) dose of LY2109761 (small molecule ALK5 inhibitor) at 100 mg/kg and was euthanized at 2 hours (+/−20 min) post-dosing for BAL collections.
To collect BAL samples, the whole lung was lavaged three times with 5.0 mL of ice-cold Dulbecco's phosphate buffered saline. […]
Phospho-SMAD2/3 assays were performed by ELISA (Cell Signaling Technologies) according to the manufacturer's instructions. Results were assessed by phosphorylated-to-total SMAD2/3 ratios.

[4] = 200 mg/kg oral gavage once daily for five days

c1ccc(-c2nn3c(c2-c2ccnc4cc(OCCN5CCOCC5)ccc24)CCC3)nc1 [LY2109761]
Heart weights ([1]; 200 mg/kg): increased heart weights | Liver weights ([1]; 200 mg/kg): Increased liver weights | Thymus weights ([1]; 200 mg/kg): decreased thymus weights | Thyroid weights ([1]; 200 mg/kg): increased thyroid weights | Uterus weights ([1]; 200 mg/kg): decreased uterus weights | Heart findings [1, 4]: test article-related heart findings occurred | Microscopic findings in bones, liver, pancreas (artery), thymus, thyroid, female reproductive tissues, mammary gland [1, 4]: microscopic findings occurred | Animals found dead at day 7 ([2]; 200 mg/kg oral gavage once daily, n=5): Two | Aortic root: Hemorrhage, Minimal ([2]; 200 mg/kg/day, n=5): 1 | Aortic root: Infiltrate, mixed cell, Minimal ([2]; 200 mg/kg/day, n=5): 1 | Atrium: Hemorrhage, Minimal ([2]; 200 mg/kg/day, n=5): 1 | Atrium: Hyperplasia, endothelium, Minimal ([2]; 200 mg/kg/day, n=5): 1 | Atrium: Infiltrate, mixed cell, Minimal ([2]; 200 mg/kg/day, n=5): 2 | Atrium: Infiltrate, mixed cell, Slight ([2]; 200 mg/kg/day, n=5): 0 | Coronary artery: Necrosis with inflammation, Slight ([2]; 200 mg/kg/day, n=5): 0 | Heart valves: Valvulopathy, Minimal ([2]; 200 mg/kg/day, n=5): 1 | Heart valves: Valvulopathy, Moderate ([2]; 200 mg/kg/day, n=5): 1 | Heart valves: Valvulopathy, Slight ([2]; 200 mg/kg/day, n=5): 3 | Myocardium: Degeneration/necrosis, Minimal ([2]; 200 mg/kg/day, n=5): 0 | Myocardium: Degeneration/necrosis, Slight ([2]; 200 mg/kg/day, n=5): 1 | Myocardium: Hemorrhage, Slight ([2]; 200 mg/kg/day, n=5): 1 | Myocardium: Infiltrate, mixed cell, Slight ([2]; 200 mg/kg/day, n=5): 0 | Mortality ([2]; 300 mg/kg oral gavage once daily, days 3, 6, or 7, all animals, n=5): sacrificed in a moribund condition or found dead | Aortic root: Hemorrhage, Minimal ([2]; 300 mg/kg/day, n=5): 0 | Aortic root: Infiltrate, mixed cell, Minimal ([2]; 300 mg/kg/day, n=5): 0 | Atrium: Hemorrhage, Minimal ([2]; 300 mg/kg/day, n=5): 2 | Atrium: Hyperplasia, endothelium, Minimal ([2]; 300 mg/kg/day, n=5): 3 | Atrium: Infiltrate, mixed cell, Minimal ([2]; 300 mg/kg/day, n=5): 3 | Atrium: Infiltrate, mixed cell, Slight ([2]; 300 mg/kg/day, n=5): 1 | Coronary artery: Necrosis with inflammation, Slight ([2]; 300 mg/kg/day, n=5): 1 | Heart valves: Valvulopathy, Minimal ([2]; 300 mg/kg/day, n=5): 2 | Heart valves: Valvulopathy, Moderate ([2]; 300 mg/kg/day, n=5): 0 | Heart valves: Valvulopathy, Slight ([2]; 300 mg/kg/day, n=5): 3 | Myocardium: Degeneration/necrosis, Minimal ([2]; 300 mg/kg/day, n=5): 1 | Myocardium: Degeneration/necrosis, Slight ([2]; 300 mg/kg/day, n=5): 1 | Myocardium: Hemorrhage, Slight ([2]; 300 mg/kg/day, n=5): 0 | Myocardium: Infiltrate, mixed cell, Slight ([2]; 300 mg/kg/day, n=5): 1 | Animals with clear fluid in the thoracic cavity and enlarged thymus (edema) ([2]; 300 mg/kg, found dead on Day 3): one | Animals with abnormally-shaped sternum ([2]; each treatment group, 200 mg/kg or 300 mg/kg): four | Bone findings ([2]; sternum, femur and tibia, higher incidence and/or severity with LY2109761): macroscopic abnormally shaped sternum and microscopic increased thickness of the hypertrophic zone | Heart valve findings, microscopic ([2]; ≥200 mg/kg): valvulopathy | Heart weights ([2]; ≥200 mg/kg): Increased heart weights | Tonic SMAD2/3 signaling (phosphorylated-to-total SMAD2/3 ratio) [3]: significantly suppressed
